Measured values as given in ChEMBL document CHEMBL5291721, “A preclinical secondary pharmacology resource illuminates target-adverse drug reaction associations of marketed drugs” (Nat Commun, 2023).

Legend:
Progesterone receptor = target: T1, Progesterone receptor (Homo sapiens, UniProt P06401); type: functional
T1 sequence (P06401 whole entry): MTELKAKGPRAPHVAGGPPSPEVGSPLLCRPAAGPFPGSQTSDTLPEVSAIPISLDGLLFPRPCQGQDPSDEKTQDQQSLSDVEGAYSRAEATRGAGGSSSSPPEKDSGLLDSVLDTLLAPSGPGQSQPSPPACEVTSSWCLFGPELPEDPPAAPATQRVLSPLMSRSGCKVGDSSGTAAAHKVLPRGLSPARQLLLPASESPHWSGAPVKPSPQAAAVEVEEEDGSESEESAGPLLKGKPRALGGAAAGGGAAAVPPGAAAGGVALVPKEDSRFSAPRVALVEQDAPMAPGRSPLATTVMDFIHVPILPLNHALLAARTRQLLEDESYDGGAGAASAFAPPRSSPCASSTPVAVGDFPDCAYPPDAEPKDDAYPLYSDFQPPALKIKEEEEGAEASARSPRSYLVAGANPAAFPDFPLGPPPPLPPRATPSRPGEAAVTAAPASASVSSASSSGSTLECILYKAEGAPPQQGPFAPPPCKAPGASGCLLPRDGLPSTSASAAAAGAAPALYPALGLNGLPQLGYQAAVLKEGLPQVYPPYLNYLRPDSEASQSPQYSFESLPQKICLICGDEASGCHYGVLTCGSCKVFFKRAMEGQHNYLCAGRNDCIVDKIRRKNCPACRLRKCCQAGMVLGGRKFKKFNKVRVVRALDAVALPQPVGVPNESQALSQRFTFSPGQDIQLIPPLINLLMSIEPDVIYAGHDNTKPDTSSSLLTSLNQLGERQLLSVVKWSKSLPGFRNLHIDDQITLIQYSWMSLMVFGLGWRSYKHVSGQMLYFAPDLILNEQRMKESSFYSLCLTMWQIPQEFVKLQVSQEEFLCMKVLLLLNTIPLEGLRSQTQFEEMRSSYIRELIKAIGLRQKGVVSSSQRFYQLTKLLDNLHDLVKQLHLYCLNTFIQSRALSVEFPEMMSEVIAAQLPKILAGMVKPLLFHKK

Cannabinoid receptor 1 = Cannabinoid receptor 1 (Homo sapiens, UniProt P21554); type: functional, cell-based
[1] = target: Sodium-dependent dopamine transporter (Homo sapiens, UniProt Q01959)
Histamine H3 receptor = Histamine H3 receptor (Homo sapiens, UniProt Q9Y5N1)
[2] = target: 3',5'-cyclic-AMP phosphodiesterase 4A (Homo sapiens, UniProt P27815); type: functional
[3] = target: Glutamate receptor ionotropic, NMDA 1 (Rattus norvegicus, UniProt P35439)
[4] = target: T2, Gastrin/cholecystokinin type B receptor (Homo sapiens, UniProt P32239)
T2 sequence (P32239 whole entry): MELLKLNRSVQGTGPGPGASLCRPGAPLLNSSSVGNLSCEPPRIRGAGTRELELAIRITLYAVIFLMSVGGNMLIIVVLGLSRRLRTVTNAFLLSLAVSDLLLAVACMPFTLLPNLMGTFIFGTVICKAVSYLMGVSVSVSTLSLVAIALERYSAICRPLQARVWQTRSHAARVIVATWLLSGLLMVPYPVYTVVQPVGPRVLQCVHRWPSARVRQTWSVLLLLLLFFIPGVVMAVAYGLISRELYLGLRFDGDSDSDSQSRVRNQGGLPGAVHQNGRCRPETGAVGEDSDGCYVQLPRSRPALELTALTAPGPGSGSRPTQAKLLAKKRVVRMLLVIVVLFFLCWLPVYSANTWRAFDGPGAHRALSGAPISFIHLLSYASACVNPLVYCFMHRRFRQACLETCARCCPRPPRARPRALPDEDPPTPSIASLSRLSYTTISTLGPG
Note: assay procedure not described here.

Sequence of 3',5'-cyclic-AMP phosphodiesterase 4A (P27815 whole entry): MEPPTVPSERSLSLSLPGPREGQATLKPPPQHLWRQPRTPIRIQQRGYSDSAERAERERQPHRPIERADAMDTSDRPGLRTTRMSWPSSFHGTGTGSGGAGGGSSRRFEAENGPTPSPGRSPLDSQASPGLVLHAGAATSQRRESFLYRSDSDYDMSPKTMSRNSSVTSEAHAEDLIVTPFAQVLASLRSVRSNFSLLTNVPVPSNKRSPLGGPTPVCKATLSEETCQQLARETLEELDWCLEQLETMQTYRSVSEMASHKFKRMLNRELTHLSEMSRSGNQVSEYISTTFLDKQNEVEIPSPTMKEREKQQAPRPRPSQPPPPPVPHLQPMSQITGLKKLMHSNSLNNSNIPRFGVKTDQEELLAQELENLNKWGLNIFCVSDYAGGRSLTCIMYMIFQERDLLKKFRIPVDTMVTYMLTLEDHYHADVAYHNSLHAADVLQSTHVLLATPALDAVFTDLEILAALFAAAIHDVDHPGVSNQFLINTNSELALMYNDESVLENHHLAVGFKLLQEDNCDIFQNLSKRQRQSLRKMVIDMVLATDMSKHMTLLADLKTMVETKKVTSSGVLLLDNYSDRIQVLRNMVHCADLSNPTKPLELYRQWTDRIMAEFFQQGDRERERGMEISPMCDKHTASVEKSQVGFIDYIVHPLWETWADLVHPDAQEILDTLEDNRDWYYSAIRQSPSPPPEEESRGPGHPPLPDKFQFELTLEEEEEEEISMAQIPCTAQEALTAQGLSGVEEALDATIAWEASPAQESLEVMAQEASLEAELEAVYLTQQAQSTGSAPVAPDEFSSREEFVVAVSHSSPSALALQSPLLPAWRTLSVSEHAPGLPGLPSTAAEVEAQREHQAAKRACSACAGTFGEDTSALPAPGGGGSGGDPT
Sequence of Sodium-dependent dopamine transporter (Q01959 whole entry): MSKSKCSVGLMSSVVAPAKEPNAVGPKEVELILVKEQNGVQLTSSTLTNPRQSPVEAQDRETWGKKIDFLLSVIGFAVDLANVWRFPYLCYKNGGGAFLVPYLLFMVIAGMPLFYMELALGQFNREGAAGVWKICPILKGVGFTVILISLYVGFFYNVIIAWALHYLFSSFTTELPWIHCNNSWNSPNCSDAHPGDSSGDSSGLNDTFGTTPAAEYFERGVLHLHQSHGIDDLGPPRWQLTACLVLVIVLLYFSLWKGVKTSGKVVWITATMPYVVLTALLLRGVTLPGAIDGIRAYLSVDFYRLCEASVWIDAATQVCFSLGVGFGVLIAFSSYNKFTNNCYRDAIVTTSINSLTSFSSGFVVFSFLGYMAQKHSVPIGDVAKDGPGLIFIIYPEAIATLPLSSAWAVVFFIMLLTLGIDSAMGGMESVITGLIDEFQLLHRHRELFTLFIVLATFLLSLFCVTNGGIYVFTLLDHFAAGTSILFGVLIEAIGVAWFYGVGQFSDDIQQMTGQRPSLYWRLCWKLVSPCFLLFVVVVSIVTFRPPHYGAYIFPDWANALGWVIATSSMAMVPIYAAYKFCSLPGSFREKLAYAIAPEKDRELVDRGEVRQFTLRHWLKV
Sequence of Cannabinoid receptor 1 (P21554 whole entry): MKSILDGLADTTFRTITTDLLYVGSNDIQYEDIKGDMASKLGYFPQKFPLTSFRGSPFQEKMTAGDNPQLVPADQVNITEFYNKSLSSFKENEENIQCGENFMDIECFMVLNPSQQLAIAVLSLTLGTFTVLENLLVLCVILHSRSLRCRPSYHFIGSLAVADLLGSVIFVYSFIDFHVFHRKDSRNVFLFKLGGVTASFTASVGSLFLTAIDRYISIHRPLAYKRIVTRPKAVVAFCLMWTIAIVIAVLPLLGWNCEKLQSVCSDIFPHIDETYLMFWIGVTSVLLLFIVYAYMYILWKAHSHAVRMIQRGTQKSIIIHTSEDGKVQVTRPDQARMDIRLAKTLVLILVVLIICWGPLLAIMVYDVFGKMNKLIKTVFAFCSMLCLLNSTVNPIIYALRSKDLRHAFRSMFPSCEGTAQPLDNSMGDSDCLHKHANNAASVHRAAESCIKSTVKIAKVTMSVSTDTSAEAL
Sequence of Histamine H3 receptor (Q9Y5N1 whole entry): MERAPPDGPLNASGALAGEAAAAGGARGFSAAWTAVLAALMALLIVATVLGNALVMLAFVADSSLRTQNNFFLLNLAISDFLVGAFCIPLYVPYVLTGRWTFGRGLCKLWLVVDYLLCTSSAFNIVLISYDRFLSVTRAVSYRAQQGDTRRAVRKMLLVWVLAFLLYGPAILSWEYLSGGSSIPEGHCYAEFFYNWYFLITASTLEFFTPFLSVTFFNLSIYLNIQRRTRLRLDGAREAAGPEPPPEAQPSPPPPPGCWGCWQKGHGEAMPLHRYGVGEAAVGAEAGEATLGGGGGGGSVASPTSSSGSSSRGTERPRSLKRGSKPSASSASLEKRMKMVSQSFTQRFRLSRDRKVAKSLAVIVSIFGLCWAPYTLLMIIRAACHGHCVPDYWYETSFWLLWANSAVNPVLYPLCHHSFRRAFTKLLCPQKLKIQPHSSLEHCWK

SMILES | AC50 (Progesterone receptor) [µM] | AC50 (Cannabinoid receptor 1) [µM] | AC50 [1] [µM] | AC50 (Histamine H3 receptor) [µM] | AC50 [2] [µM] | AC50 [3] [µM] | AC50 [4] [µM]
CCOCC(O)COc1ccc(NC(=O)CC[S+](C)C)cc1 (centres undefined) | > 30 | > 30 | > 30 |  |  |  | 
O=C(O)[C@@H](S)[C@@H](S)C(=O)O |  |  |  | > 30 | > 30 |  | 
CCC[C@@]1(CCc2ccccc2)CC(O)=C([C@H](CC)c2cccc(NS(=O)(=O)c3ccc(C(F)(F)F)cn3)c2)C(=O)O1 | > 30 | > 30 | 27 |  |  |  | 
C=CC1=C(C(=O)O)N2C(=O)[C@@H](NC(=O)/C(=N\O)c3csc(N)n3)[C@H]2SC1 |  | > 30 | > 30 |  |  | > 10 | > 30
O=C(O)COC(=O)Cc1ccccc1Nc1c(Cl)cccc1Cl [ACECLOFENAC] |  | > 30 | > 30 |  |  | > 10 | > 30
CN(C)CCc1c[nH]c2ccc(CS(=O)(=O)N3CCCC3)cc12 [ALMOTRIPTAN] | > 30 | > 30 | > 30 |  |  | > 30 | > 30
CC[N+](CC)(CCNC(=O)C(=O)NCC[N+](CC)(CC)Cc1ccccc1Cl)Cc1ccccc1Cl [AMBENONIUM] | > 30 | > 30 | > 30 |  |  | > 30 | > 30
NCCCNCCSP(=O)(O)O [AMIFOSTINE] |  | > 30 | > 30 |  |  | > 30 | > 30
NCCCCCC(=O)O [AMINOCAPROIC ACID] | > 10 |  | 12.7 |  |  | > 10 | 
CN1CC2c3ccccc3Oc3ccc(Cl)cc3C2C1 (centres undefined) [ASENAPINE] | > 30 | > 30 | 11 |  |  |  | 
CC(C)NCC(O)COc1ccc(CC(N)=O)cc1 (centres undefined) [ATENOLOL] | > 30 |  |  |  |  | > 30 | > 30
Cn1cnc2c(F)c(Nc3ccc(Br)cc3F)c(C(=O)NOCCO)cc21 [BINIMETINIB] | > 30 | > 30 | > 30 |  |  |  | 
CC(C)C[C@H](NC(=O)[C@H](Cc1ccccc1)NC(=O)c1cnccn1)B(O)O [BORTEZOMIB] | > 30 |  | > 30 |  |  | > 30 | > 30
C[C@H](CS)C(=O)N1CCC[C@H]1C(=O)O [CAPTOPRIL] |  |  | > 30 |  |  | > 10 | > 30
CN(C)CCOC(c1ccc(Cl)cc1)c1ccccn1 (centres undefined) [CARBINOXAMINE] | > 30 | > 30 | 5.2 |  |  | > 30 | > 30
CCN(CC)CCn1c(=O)c(Cc2ccc(OC)cc2)nc2ccccc21 [CAROVERINE] | > 30 | > 30 | > 30 |  |  | > 30 | > 30
O=C(Cc1cccs1)N[C@@H]1C(=O)N2C(C(=O)[O-])=C(C[n+]3ccccc3)CS[C@H]12 [CEPHALORIDINE] |  | > 30 |  | > 30 | > 3 | > 30 | 
C[C@H](CCC(=O)O)[C@H]1CC[C@H]2[C@@H]3[C@H](O)C[C@@H]4C[C@H](O)CC[C@]4(C)[C@H]3CC[C@]12C [CHENODIOL] |  | > 30 | > 30 |  |  |  | 
O=C(O)[C@H]1/C(=C/CO)O[C@@H]2CC(=O)N21 [CLAVULANIC ACID] | > 30 | > 30 | > 30 |  |  |  | 
CC(C)/N=c1\cc2n(-c3ccc(Cl)cc3)c3ccccc3nc-2cc1Nc1ccc(Cl)cc1 [CLOFAZIMINE] | > 30 | > 30 | > 30 |  |  | 22 | > 30
C[C@H](Nc1ncnc2[nH]cnc12)c1cc2cccc(Cl)c2c(=O)n1-c1ccccc1 [DUVELISIB] | > 30 | > 30 | > 30 | > 30 | > 30 |  | 

SMILES | AC50 (Progesterone receptor) [µM] | AC50 (Cannabinoid receptor 1) [µM] | AC50 [1] [µM] | AC50 (Histamine H3 receptor) [µM] | AC50 [2] [µM] | AC50 [3] [µM] | AC50 [4] [µM]
COC(=O)CCc1ccc(OCC(O)CNC(C)C)cc1 (centres undefined) [ESMOLOL] | > 30 |  | > 30 |  |  | > 30 | > 30
C[C@]12CCC(=O)C=C1CC[C@H]1[C@@H]3CC[C@](O)(C(=O)CO)[C@@]3(C)C[C@H](O)[C@@]12F [FLUDROCORTISONE] |  | > 30 | > 30 |  |  | > 10 | > 30
CCOC(=O)Nc1ccc(NCc2ccc(F)cc2)nc1N [FLUPIRTINE] | > 30 | > 30 | > 30 |  |  | > 30 | > 30
CCN(CCO)CCCC(C)Nc1ccnc2cc(Cl)ccc12 (centres undefined) [HYDROXYCHLOROQUINE] | > 10 |  | > 10 |  |  | > 10 | 
OCCOCCN1CCN(C(c2ccccc2)c2ccc(Cl)cc2)CC1 (centres undefined) [HYDROXYZINE] |  | > 30 | > 10 |  |  | > 10 | > 30
C[C@@H](O)[C@H]1C(=O)N2C(C(=O)O)=C(SCCN=CN)C[C@H]12 [IMIPENEM ANHYDROUS] | > 300 | > 300 | > 300 |  |  |  | 
O=C(c1ccccc1)c1ccc2n1CCC2C(=O)O (centres undefined) [KETOROLAC] | > 10 |  | > 10 |  |  | > 30 | 
Nc1nnc(-c2cccc(Cl)c2Cl)c(N)n1 [LAMOTRIGINE] |  | > 30 | > 10 |  |  | > 10 | > 30
N[C@@H](Cc1cc(I)c(Oc2cc(I)c(O)c(I)c2)c(I)c1)C(=O)O [LEVOTHYROXINE] | > 30 | > 30 | > 30 |  |  | > 30 | > 30
CC(=O)NC[C@H]1CN(c2ccc(N3CCOCC3)c(F)c2)C(=O)O1 [LINEZOLID] | > 30 | > 30 |  |  |  | > 30 | > 30
CNC1(C)C2CCC(C2)C1(C)C (centres undefined) [MECAMYLAMINE] | > 10 |  | > 10 |  |  | > 10 | 
CO[C@@H]1[C@@H](OC(N)=O)[C@@H](O)[C@H](Oc2ccc3c(O)c(NC(=O)c4ccc(O)c(CC=C(C)C)c4)c(=O)oc3c2C)OC1(C)C [NOVOBIOCIN] | > 30 | > 30 | > 30 |  |  |  | 
C#CCN(C)Cc1ccccc1 [PARGYLINE] |  | > 30 |  | > 30 | > 30 | > 30 | 
CCC1(c2ccccc2)C(=O)NCNC1=O [PRIMIDONE] | > 10 |  | > 10 |  |  | > 10 | 
CC(=O)SCC(Cc1ccccc1)C(=O)NCC(=O)OCc1ccccc1 (centres undefined) [RACECADOTRIL] | > 30 | > 30 | > 30 |  |  | > 30 | > 30
CCOc1ccccc1OCCN[C@H](C)Cc1ccc(OC)c(S(N)(=O)=O)c1 [TAMSULOSIN] |  |  | > 30 |  |  | > 10 | > 30
C[C@H](Cn1cnc2c(N)ncnc21)OCP(=O)(O)O [TENOFOVIR ANHYDROUS] | > 30 |  | > 30 |  |  | > 30 | > 30
COc1cc2c(cc1OC)C1CC(=O)C(CC(C)C)CN1CC2 (centres undefined) [TETRABENAZINE] | > 30 | > 30 | > 30 |  |  |  | 
CC(C)(CO)c1cc2cc(NC(=O)C3(c4ccc5c(c4)OC(F)(F)O5)CC3)c(F)cc2n1C[C@@H](O)CO [TEZACAFTOR] | > 30 | > 30 | > 30 |  |  |  | 
c1cnc2cc3c(cc2n1)[C@@H]1CNC[C@H]3C1 [VARENICLINE] | > 30 | > 30 | > 30 |  |  |  | 
Nc1c2c(nc3ccccc13)CCCC2O (centres undefined) [VELNACRINE] | > 30 | > 30 | > 30 |  |  |  | 
